This is an account of results in US20240374595A1, “SUBSTITUTED 1,1'-BIPHENYL COMPOUNDS, ANALOGUES THEREOF, AND METHODS USING SAME” (Arbutus Biopharma Corporation, priority 2018, published 2024).

One may read the IC50 as the concentration needed to halve the response being measured. Read a high IC50 as weaker potency in that assay.

PD-L1, sequence (Q9NZQ7 19-238): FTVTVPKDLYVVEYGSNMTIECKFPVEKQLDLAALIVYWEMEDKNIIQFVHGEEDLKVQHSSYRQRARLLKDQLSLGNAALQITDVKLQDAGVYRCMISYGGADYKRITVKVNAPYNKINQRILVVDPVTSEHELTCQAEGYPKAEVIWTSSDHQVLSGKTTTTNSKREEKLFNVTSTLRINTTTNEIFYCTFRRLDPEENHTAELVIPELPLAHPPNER

For this assay, the target named is PD-L1 (Homo sapiens (Human), UniProt Q9NZQ7). As to the kind of experiment: PD-L1 HTRF assay (PD-1/PD-L1 interaction). The assay is classed as binding. To be noted: PD-L1 His 6 nM, PD-1 Fc 6 nM; inhibitors 3-fold diluted from 20 μM. How it is done:
PD-L1 small molecule inhibitors were diluted by 3-fold starting from 20 μM and a final concentration of 0.001 μM and added to the well. PD-1 Fc protein was added at the final concentration of 6 nM. PD-L1 His protein, PD-L1 small molecule inhibitors, and PD1 Fc proteins were added to the well in this order, with each 5 μl volume, and were incubated for 15 minutes at room temperature. […] The plate was read using PerkinElmer Envision plate reader and data was analyzed by Prism 6 software.
In general terms: Time-resolved FRET reads energy transfer from a long-lived donor to a nearby acceptor.
The compound `Cc1c(NC(=O)c2ccc(CO)cn2)cccc1-c1cccc(NC(=O)c2ccc(CO)cn2)c1C` [Example 32, 5-(Hydroxymethyl)-N-[3-[3-[[5-(hydroxymethyl)pyridine-2-carbonyl]amino]-2-methyl-phenyl]-2-methyl-phenyl]pyridine-2-carboxamide] yielded an IC50 of 3.2 nM.

Take `Cc1c(COc2ccc(-c3nccn3C)c(OCc3cccc(C#N)c3)c2)cccc1-c1ccccc1` [Example 4, 3-[[2-(1-methylimidazol-2-yl)-5-[(2-methyl-3-phenyl-phenyl)methoxy]phenoxy]methyl]benzonitrile]: the IC50 stood at 5400 nM. `Cc1c(COc2cc(OCc3cncc(C#N)c3)c(C3=NCC(O)CN3)cc2Cl)cccc1-c1cccc(COc2cc(OCc3cncc(C#N)c3)c(C3=NCC(O)CN3)cc2Cl)c1C` (centres unmarked) [Example 28, 5-[[4-chloro-5-[[3-[3-[[2-Chloro-5-[(5-cyano-3-pyridyl)methoxy]-4-(5-hydroxy-1,4,5,6-tetrahydropyrimidin-2-yl)phenoxy]methyl]-2-methyl-phenyl]-2-methyl-phenyl]methoxy]-2-(5-hydroxy-1,4,5,6-tetrahydropyrimidin-2-yl)phenoxy]methyl]pyridine-3-carbonitrile] returned an IC50 of 6.7 nM.

With “5-(((1,3-dihydroxypropan-2-yl)amino)methyl)-N-(3′-(5-(((2-hydroxyethyl)amino)methyl)picolinamido)-2,2′-dimethyl-[1,1′-biphenyl]-3-yl)picolinamide [Example 36]”, half-maximal inhibition (IC50) was put at 0.4 nM. In turn, `Cc1c(NC(=O)c2ccc(CNCCO)cn2)cccc1-c1cccc(OCCCN2CCC(O)CC2)c1C` [Example 33, 5-[(2-hydroxyethylamino)methyl]-N-[3-[3-[3-(4-hydroxy-1-piperidyl)propoxy]-2-methyl-phenyl]-2-methyl-phenyl]pyridine-2-carboxamide] came in with an IC50 of 3.7 nM.

`Cc1c(COc2ccc(-c3ncc[nH]3)c(OCc3cccc(C#N)c3)c2)cccc1-c1ccccc1` [Example 2, 3-[[2-(1H-Imidazol-2-yl)-5-[(2-methyl-3-phenyl-phenyl)methoxy]phenoxy]methyl] benzonitrile] returned an IC50 of 20000 nM. The value for `Cc1c(COc2cc(OCc3cncc(C#N)c3)c(C3=NCC(O)CN3)cc2Cl)cccc1-c1cccc(OCC(CO)c2ccccc2)c1C` (centres unmarked) [Example 26, 5-[[4-Chloro-5-[[3-[3-(3-hydroxy-2-phenyl-propoxy)-2-methyl-phenyl]-2-methyl-phenyl]methoxy]-2-(5-hydroxy-1,4,5,6-tetrahydropyrimidin-2-yl)phenoxy]methyl]pyridine-3-carbonitrile] was 7.4 nM; that for `Cc1c(COc2ccc(-c3nccn3CCO)c(OCc3cccc(C#N)c3)c2)cccc1-c1ccccc1` [Example 7, 3-[[2-[1-(2-Hydroxyethyl)imidazol-2-yl]-5-[(2-methyl-3-phenyl-phenyl)methoxy]phenoxy]methyl]benzonitrile] was 1800 nM. Compound `Cc1c(COc2ccc(C3=NCCN3)c(OCc3cccc(C#N)c3)c2)cccc1-c1ccccc1` [Example 1, 3-((2-(4,5-Dihydro-1H-imidazol-2-yl)-5-((2-methyl-[1,1′-biphenyl]-3-yl)methoxy)phenoxy)methyl)benzonitrile] returned an IC50 of 280 nM. `Cc1c(NC(=O)c2ccc(CNCCO)cn2)cccc1-c1cccc(NC(=O)c2ccc(CN(C)CCO)cn2)c1C` [Example 38, 5-(((2-hydroxyethyl)-(methyl)amino)methyl)-N-(3′-(5-(((2-hydroxyethyl)amino)methyl)picolinamido)-2,2′-dimethyl-[1,1′-biphenyl]-3-yl)picolinamide] displayed an IC50 of 0.9 nM. For the compound `Cc1c(COc2cc(OCc3cncc(C#N)c3)c(C3=NCC(OCC(=O)O)CN3)cc2Cl)cccc1-c1cccc(OCCCN2CCC(O)CC2)c1C` (centres unmarked) [Example 21, 2-[[2-[5-Chloro-2-[(5-cyano-3-pyridyl)methoxy]-4-[[3-[3-[3-(4-hydroxy-1-piperidyl)propoxy]-2-methyl-phenyl]-2-methyl-phenyl]methoxy]phenyl]-1,4,5,6-tetrahydropyrimidin-5-yl]oxy] acetic acid], it took 0.8 nM to reach half-maximal inhibition (IC50). On to `Cc1c(COc2cc(OCc3cncc(C#N)c3)c(C3=NCC(O)CN3)cc2Cl)cccc1-c1cccc(OCC(CN2CCC(O)CC2)c2ccccc2)c1C` (centres unmarked) [Example 25, 5-[[4-chloro-5-[[3-[3-[3-(4-hydroxy-1-piperidyl)-2-phenyl-propoxy]-2-methyl-phenyl]-2-methyl-phenyl]methoxy]-2-(5-hydroxy-1,4,5,6-tetrahydropyrimidin-2-yl)phenoxy]methyl]pyridine-3-carbonitrile], for which 30 nM corresponded to half-maximal inhibition (IC50).

For the compound `Cc1c(COc2ccc(C3=NCCCN3)c(OCc3cccc(C#N)c3)c2)cccc1-c1ccccc1` [Example 9, 3-[[5-[(2-Methyl-3-phenyl-phenyl)methoxy]-2-(1,4,5,6-tetrahydropyrimidin-2-yl)phenoxy]methyl]benzonitrile], 150 nM corresponded to half-maximal inhibition (IC50).

Take `Cc1c(COc2ccc(C3=NCC(O)CN3)c(OCc3cccc(C#N)c3)c2)cccc1-c1ccccc1` (centres unmarked) [Example 10, 3-[[2-(5-Hydroxy-1,4,5,6-tetrahydropyrimidin-2-yl)-5-[(2-methyl-3-phenyl-phenyl)methoxy]phenoxy]methyl]benzonitrile]: half-maximal inhibition (IC50) was put at 100 nM. The value for `Cc1c(COc2cc(OCc3cncc(C#N)c3)c(C3=NCCCN3CCO)cc2Cl)cccc1-c1cccc(OCCCN2CCC(O)CC2)c1C` [Example 17, 5-[[4-Chloro-2-[1-(2-hydroxyethyl)-5,6-dihydro-4H-pyrimidin-2-yl]-5-[[3-[3-[3-(4-hydroxy-1-piperidyl)propoxy]-2-methyl-phenyl]-2-methyl-phenyl]methoxy]phenoxy]methyl] pyridine-3-carbonitrile] was 1.5 nM; that for `Cc1c(COc2cc(OCc3cncc(C#N)c3)c(C3=NCC(O)CN3)cc2Cl)cccc1-c1cccc(OCCCN2CCC(O)CC2)c1C` (centres unmarked) [Example 16, 5-[[4-Chloro-5-[[3-[3-[3-(4-hydroxy-1-piperidyl)propoxy]-2-methyl-phenyl]-2-methyl-phenyl]methoxy]-2-(5-hydroxy-1,4,5,6-tetrahydropyrimidin-2-yl)phenoxy]methyl]pyridine-3-carbonitrile] was 1.2 nM; that for `Cc1c(COc2cc(OCc3cncc(C#N)c3)c(C3=NCC(O)CN3CCO)cc2Cl)cccc1-c1cccc(OCCCN2CCC(O)CC2)c1C` (centres unmarked) [Example 23] was 14 nM.

Consider `Cc1c(COc2ccc(/C(=N/CCO)NCCO)c(OCc3cccc(C#N)c3)c2)cccc1-c1ccccc1` [Example 13, 2-[(3-Cyanophenyl)methoxy]-N,N′-bis(2-hydroxyethyl)-4-[(2-methyl-3-phenyl-phenyl)methoxy]benzamidine], for which half-maximal inhibition (IC50) was put at 170 nM. In the case of `Cc1c(NC(=O)c2ccc(CNCCO)cn2)cccc1-c1cccc(NC(=O)c2ccc(CN3CC[C@@H](O)C3)cn2)c1C` [Example 37, (R)-5-(((2-hydroxyethyl)amino)methyl)-N-(3′-(5-((3-hydroxypyrrolidin-1-yl)methyl)picolinamido)-2,2′-dimethyl-[1,1′-biphenyl]-3-yl)picolinamide], the IC50 amounted to 0.8 nM.

`Cc1c(COc2ccc(C3=NCCCN3CCO)c(OCc3cccc(C#N)c3)c2)cccc1-c1ccccc1` [Example 12, 3-[[2-[1-(2-Hydroxyethyl)-5,6-dihydro-4H-pyrimidin-2-yl]-5-[(2-methyl-3-phenyl-phenyl)methoxy]phenoxy]methyl]benzonitrile]: the IC50 amounted to 110 nM.

Compound `Cc1c(COc2cc(OCc3cncc(C#N)c3)c(C3=NC(C(=O)O)CN3)cc2Cl)cccc1-c1cccc(OCCCN2CCC(O)CC2)c1C` (centres unmarked) [Example 19, 2-[5-Chloro-2-[(5-cyano-3-pyridyl)methoxy]-4-[[3-[3-[3-(4-hydroxy-1-piperidyl)propoxy]-2-methyl-phenyl]-2-methyl-phenyl]methoxy]phenyl]-4,5-dihydro-1H-imidazole-4-carboxylic acid] gave an IC50 of 1.2 nM. For the compound `Cc1c(COc2cc(OCc3cncc(C#N)c3)c(C3=NCCN3CCO)cc2Cl)cccc1-c1cccc(OCCCN2CCC(O)CC2)c1C` [Example 22, 5-[[4-Chloro-2-[1-(2-hydroxyethyl)-4,5-dihydroimidazol-2-yl]-5-[[3-[3-[3-(4-hydroxy-1-piperidyl)propoxy]-2-methyl-phenyl]-2-methyl-phenyl]methoxy]phenoxy]methyl]pyridine-3-carbonitrile], it took 3.8 nM to reach half-maximal inhibition (IC50). `Cc1c(COc2ccc(C3=NCCN3CCO)c(OCc3cccc(C#N)c3)c2)cccc1-c1ccccc1` [Example 6, 3-[[2-[1-(2-Hydroxyethyl)-4,5-dihydroimidazol-2-yl]-5-[(2-methyl-3-phenyl-phenyl)methoxy]phenoxy]methyl]benzonitrile] displayed a concentration for half-maximal inhibition (IC50) of 53 nM. As to `Cc1c(COc2ccc(C3=NCCN3C)c(OCc3cccc(C#N)c3)c2)cccc1-c1ccccc1` [Example 3, 3-[[2-(1-Methyl-4,5-dihydroimidazol-2-yl)-5-[(2-methyl-3-phenyl-phenyl)methoxy]phenoxy]methyl]benzonitrile], 320 nM corresponded to half-maximal inhibition (IC50). In turn, `COc1cc(OCc2cccc(-c3cccc(COc4cc(OC)c(CN5CCCC[C@H]5C(=O)O)cc4Cl)c3C)c2C)c(Cl)cc1CO` [Example 30, (2S)-1-[[5-chloro-4-[[3-[3-[[2-chloro-4-(hydroxymethyl)-5-methoxy-phenoxy]methyl]-2-methyl-phenyl]-2-methyl-phenyl]methoxy]-2-methoxy-phenyl]methyl]piperidine-2-carboxylic acid] returned a half-maximal inhibitory concentration (IC50) of 4 nM.

As to `Cc1c(NC(=O)c2ccc(C3=NCCC(C(=O)O)N3)cn2)cccc1-c1cccc(NC(=O)c2ccc(C3=NCCC(C(=O)O)N3)cn2)c1C` (centres unmarked) [Example 35, 2-[6-[[3-[3-[[5-(4-Carboxy-1,4,5,6-tetrahydropyrimidin-2-yl)pyridine-2-carbonyl]amino]-2-methyl-phenyl]-2-methyl-phenyl]carbamoyl]-3-pyridyl]-1,4,5,6-tetrahydropyrimidine-4-carboxylic acid], the IC50 was determined as 0.3 nM.
